Patent publication US6277847A, “Herbicidal isoindolinonyl-and 3,4-dihydroisoquinolonyl-substituted heterocycles” (FMC Corporation, priority 2000, dated 2001)

How the values were obtained:
Assay type in all cases: in vivo
[1] = system: common cocklebur (Xanthium strumarium L.); experiment: post-emergence herbicidal activity, cocklebur; conditions: 1 Kg/Ha, about fourteen days, read-out: post-emergence herbicidal activity (% control) XANPE
Summary of the method: (§1)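 Percent control (0–100) was rated about fourteen days after spraying of emerged, germinated plants in flats with compound dissolved in water/acetone at 1 Kg/Ha.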

[2] = system: soybean (Glycine max -- var. Winchester); experiment: post-emergence herbicidal activity, soybean; conditions: 1 Kg/Ha, about fourteen days, read-out: post-emergence herbicidal activity (% control) SOY
Summary of the method: as §1

[3] = system: velvetleaf (Abutilon theophrasti); experiment: pre-emergence herbicidal activity, velvetleaf; conditions: 1 kg/Ha, about fourteen days, read-out: pre-emergence herbicidal activity (% control) ABUTH
Summary of the method: (§2)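 Seeds sown in soil flats and sprayed pre-emergence with a water/acetone solution of test compound at 1 kg/Ha; untreated controls kept alongside. Phytotoxicity scored after about fourteen days as percent control, 0 being no effect and 100 complete control.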

[4] = system: blackgrass (Aloepecurus myosuroides); experiment: post-emergence herbicidal activity, blackgrass; conditions: Alopecurus myosuroides, 1 Kg/Ha, about fourteen days, read-out: post-emergence herbicidal activity (% control) ALOMY
Protocol: This example sets forth the methods of herbicidal testing conducted on the specific compounds set forth below. Specifically, the compounds referenced below were tested for pre- and post-emergence herbicidal activity using a variety of crops and weeds. The test plants include, but are not limited to, soybean (Glycine max -- var. Winchester), field corn (Zea mays var. Pioneer 3732), wheat (Triticum aestivum var. Lew), morningglory (Ipomea lacunosa or Ipomea hederacea), velvetleaf (Abutilon theophrasti), green foxtail (Setaria viridis), Johnsongrass (Sorghum halepense), blackgrass (Aloepecurus myosuroides), common chickweed (Stellaria media), and common cocklebur (Xanthium strumarium L.).
In the post-emergence test, seeds of the plant species named above were planted in flats containing the appropriate soil mixture where they were maintained to allow the seeds to germinate. When the plants in these flats reached the proper stage of growth, flats for the pre-emergence tests were planted in a like manner. The flats containing the post-emergence and pre-emergence test plant species were then sprayed with an appropriately concentrated water/acetone solution of test compound. Once treated the flats were maintained, along with untreated controls, for about fourteen days. All treated plants were then examined for phytotoxicity, which was expressed as percent control where 0 is no effect and 100 is complete control. Effective rates of application for the compounds of the present invention range from 0.001 to 3 kg/ha, more likely from […] to 1 Kg/ha.
Herbicidal activity data at selected application rates are in Tables 4 and 5. The test compounds are identified by numbers correspond to those in Table 1.
SOY is soybean, WHT is wheat, CRN is corn, ABUTH is velvetleaf, IPOSS is
morningglory, STEME is chickweed, XANPE is cocklebur, ALOMY is blackgrass,
Rate of application of test compound is 1 Kg/Ha. The definitions as shown under Table 4 apply to Table 5.

[5] = system: common cocklebur (Xanthium strumarium L.); experiment: pre-emergence herbicidal activity, cocklebur; conditions: 1 kg/Ha, about fourteen days, read-out: pre-emergence herbicidal activity (% control) XANPE
Summary of the method: as §2

[6] = system: field corn (Zea mays var. Pioneer 3732); experiment: post-emergence herbicidal activity, corn; conditions: 1 Kg/Ha, about fourteen days, read-out: post-emergence herbicidal activity (% control) CRN
Summary of the method: as §1

[7] = system: morningglory (Ipomea lacunosa or Ipomea hederacea); experiment: post-emergence herbicidal activity, morningglory; conditions: Ipomoea, 1 Kg/Ha, about fourteen days, read-out: post-emergence herbicidal activity (% control) IPOSS
Summary of the method: as §1

[8] = system: wheat (Triticum aestivum var. Lew); experiment: pre-emergence herbicidal activity, wheat; conditions: 1 kg/Ha, about fourteen days, read-out: pre-emergence herbicidal activity (% control) WHT
Summary of the method: as §2

[9] = system: field corn (Zea mays var. Pioneer 3732); experiment: pre-emergence herbicidal activity, corn; conditions: 1 kg/Ha, about fourteen days, read-out: pre-emergence herbicidal activity (% control) CRN
Summary of the method: as §2

[10] = system: Johnsongrass (Sorghum halepense); experiment: post-emergence herbicidal activity, johnsongrass; conditions: 1 Kg/Ha, about fourteen days, read-out: post-emergence herbicidal activity (% control) SORHA
Summary of the method: as §1

[11] = system: common chickweed (Stellaria media); experiment: pre-emergence herbicidal activity, chickweed; conditions: 1 kg/Ha, about fourteen days, read-out: pre-emergence herbicidal activity (% control) STEME
Summary of the method: as §2

[12] = system: velvetleaf (Abutilon theophrasti); experiment: post-emergence herbicidal activity, velvetleaf; conditions: 1 Kg/Ha, about fourteen days, read-out: post-emergence herbicidal activity (% control) ABUTH
Summary of the method: as §1

[13] = system: morningglory (Ipomea lacunosa or Ipomea hederacea); experiment: pre-emergence herbicidal activity, morningglory; conditions: Ipomoea, 1 kg/Ha, about fourteen days, read-out: pre-emergence herbicidal activity (% control) IPOSS
Summary of the method: as §2

[14] = system: wheat (Triticum aestivum var. Lew); experiment: post-emergence herbicidal activity, wheat; conditions: 1 Kg/Ha, about fourteen days, read-out: post-emergence herbicidal activity (% control) WHT
Summary of the method: as §1

[15] = system: green foxtail (Setaria viridis); experiment: pre-emergence herbicidal activity, green foxtail; conditions: 1 kg/Ha, about fourteen days, read-out: pre-emergence herbicidal activity (% control) SETVI
Summary of the method: as §2

[16] = system: green foxtail (Setaria viridis); experiment: post-emergence herbicidal activity, green foxtail; conditions: 1 Kg/Ha, about fourteen days, read-out: post-emergence herbicidal activity (% control) SETVI
Summary of the method: as §1

[17] = system: common chickweed (Stellaria media); experiment: post-emergence herbicidal activity, chickweed; conditions: 1 Kg/Ha, about fourteen days, read-out: post-emergence herbicidal activity (% control) STEME
Summary of the method: as §1

[18] = system: soybean (Glycine max -- var. Winchester); experiment: pre-emergence herbicidal activity, soybean; conditions: 1 kg/Ha, about fourteen days, read-out: pre-emergence herbicidal activity (% control) SOY
Summary of the method: as §2

[19] = system: blackgrass (Aloepecurus myosuroides); experiment: pre-emergence herbicidal activity, blackgrass; conditions: Alopecurus myosuroides, 1 kg/Ha, about fourteen days, read-out: pre-emergence herbicidal activity (% control) ALOMY
Summary of the method: as §2

Measured: activity at 1000 g/ha

COCCN1Cc2c(-n3c(=O)cc(C(F)(F)F)n(C)c3=O)ccc(Cl)c2C1=O [Compound 23]
80%: [6]
not listed: [19]
100%: all other assays above

Cn1c(C(F)(F)F)cc(=O)n(-c2ccc(Cl)c3c2CN(Cc2ccc(Cl)cc2)C3=O)c1=O [Compound 24]
100%: [3] | [12] | [17]
80%: [1]
30%: [7] | [8] | [13] | [14]
10%: [5] | [18]
60%: [2]
40%: [10]
95%: [15]
50%: [9]
not listed: [19]
70%: all other assays above

CC(C)N1Cc2c(-n3c(=O)cc(C(F)(F)F)n(C)c3=O)ccc(Br)c2C1=O [Compound 81]
not listed: [10]
100%: all other assays above

CCCn1c(C(F)(F)F)cc(=O)n(-c2ccc(Cl)c3c2CN(C(C)C)C3=O)c1=O [Compound 72]
40%: [3] | [5]
30%: [8] | [19]
20%: [12] | [18]
0%: [14]
65%: [11]
60%: [2] | [6]
70%: [9]
75%: [15]
50%: [16]
25%: [13]
not listed: [10]
10%: all other assays above
